How the values were obtained:
hES cells = assay: Cell adhesion assay, 1 hour (Example 2); type: cell-based, human; conditions: not shown
Protocol: Tissue cell culture plates were coated overnight at 4° C. with sterile solutions of the ECM proteins, such as human recombinant LN-521, all at a concentration of 30 μg/ml (5 μg/cm^2). Control plates were coated with Matrigel according to the STEMCELL Technologies' instructions. Prior to use, dishes were pre-warmed in an incubator for one hour after which prewarmed O3 medium was added without additional washing of the dish. After applying a fresh LN-521 solution to a new dish, the remaining LN-521 solution could be used at least once more. All the adhesion, survival, and inhibition of survival experiments were carried out using fresh coating materials.
Briefly, 96-well plates were coated by extracellular matrix proteins as described above and blocked by O3 medium containing bovine serum albumin. The ES cells were plated at cell density of 50,000 cells/cm^2 onto extracellular matrix-coated plates and left to adhere for 1 hour in a cell incubator. After that the plates were washed 3 times with the medium to remove the non-adherent cells, and then the adherent cells were fixed for 20 minutes by 5% glutaraldehyde, stained by 0.1% Crystal Violet. (Kebo Lab, Spanga, Sweden, http://www.kebolab.se). After one hour and 3 washes with water, Crystal Violet was extracted with 10% acetic acid and quantified by measuring optical density at 570 nm. All the experiments were performed in quadruplicate.

human ES cells = assay: Long-term culture with single cell dissociation passaging (Example 1); type: cell-based
Protocol: Human ES cells were cultured on r-laminin-521-coated laboratory dishes in chemically defined O3 medium (described in Rodin et al., Nature Biotechnol., vol. 28, pp. 611-615 (2010)) at 37° C. in 5% CO2. Cells were routinely passed once every 10-12 days by exposure to Trypsin-EDTA solution (GIBCO Invitrogen) for 5 minutes at 37° C. They were then gently pipetted to break into single-cell suspension and defined trypsin inhibitor (GIBCO Invitrogen) was added. The cell suspension was centrifuged […], the supernatant discarded, the cell pellet resuspended in prewarmed O3 medium, and cells were then passed through a 40 μm sieve. After that cells were plated on new r-laminin-521-coated dishes at a concentration 30 Kcells/cm^2 (1:25-1:30 split ratio). Cells were fed once a day with fresh medium prewarmed in an incubator for 1 hour, except for the first day after a passage, when only a few drops of fresh medium were added. Control cells of the same line were cultured on Matrigel (BD Biosciences) in O3 medium as described in Rodin et al., Nature Biotechnol., vol. 28, pp. 611-615 (2010). Control cells were passaged in pieces.

[1] = test system: human embryonic stem cells; assay: Survival of dissociated human embryonic stem cells one day after plating on precoated dishes; type: cell-based; conditions: single cell suspension, O3 medium, 30 Kcells/cm^2
Excerpt: In other aspects, the present disclosure provides a new material, isolated laminin-521, which permits human embryonic stem cell survival after dissociation into single cell suspension. The stem cells were dissociated into single cell suspension by Trypsin-EDTA treatment, pelleted by centrifugation, resuspended into O3 medium, filtered through a 40 μm sieve, and plated at a density of 30 Kcells/cm^2 on cell culture dishes precoated by either isolated laminin-521, laminin-511, or Matrigel. After one day in culture, the cells plated on Matrigel died, as is known in the art.

[2] = test system: PI3K/Akt and MEK1/Erk pathways; assay: Western blot with antibodies to phospho-Akt / phospho-Erk; type: cell-based, human; conditions: data not shown
Protocol: HS 181 cells were trypsinized into single cell suspension as described above. For inhibition experiments, the cells were kept in O3 medium with blocking antibodies or pathway inhibitors for 30 minutes and then 450K cells were plated on 35 mm dishes precoated with the appropriate matrix coating. For other experiments, same number of cells was plated directly after trypsinization. In all cases the cells were allowed to spread for 1 hour at 37° C., 5% CO2. After two washings in ice-cold PBS, the plates with cells were snap frozen in liquid nitrogen and stored at −80° C. To prepare samples for western blots and ELISA, the plates were slowly thawed and kept on ice with 100-150 μl of lysis buffer (50 mM Tris-HCl, pH7.5, 150 mM NaCl, 0.5% deoxycholate, 0.5% SDS, 1% Triton X-100, 1% Igepal, Complete™ (Roche) and Phospho-Stop™ (Roche)) on top. Then, the cells were scraped, pipetted and sheared through a 27G ¾″ needle. After that, the cell pellets were clarified by centrifugation at 16,100 rcf for 15 minutes at 4° C. For western blots, 4-12% gradient gels were used for SDS electrophoresis and the proteins were transferred to PVDF membranes. The membrane was hybridized with the antibody of interest according to the manufacturer's instructions. […] For the densitometry analysis the films were scanned at 2,400 dpi and analyzed by the Chemilmager5500 program (1D-Multi Line densitometry mode). […]

Substance: LN-521: protein formed by joining α5, β2 and γ1 laminin chains; human recombinant, produced in HEK293 cells
- spreading of the cells after one hour compared with Matrigel or LN-111 (hES cells): clearly better
- increase in the number of cells versus time compared with Matrigel (human ES cells; LN-521 single cell passaging vs Matrigel clumps): much faster rate
- passages with robust proliferation at stable and high rate (human ES cells; single cell suspension passaging every 10-12 days, 1:25 to 1:30 ratios (3 months)): at least 9 passages
- survival after one day in culture [1]: survived
- PI3K/Akt pathway activity (phospho-Akt western blot) [2]: active

Source: patent US10138292B2, “Cell culture medium” (BIOLAMINA AB, priority 2010, dated 2018)
